Source: patent publication US20230192661A1, “1, 4, 5, 6-TETRAHYDROPYRIMIDINE-2-AMINE DERIVATIVE” (UBE Corporation, priority 2020, published 2023)

Assay: Transcellular transport test using Caco2 cell
Assay type: in vitro ADME
Details: human, Caco-2; Caco2 monolayer, A-to-B, 10 μM compound, pH 7.4, 90 minutes
Protocol: Caco2 cells (purchased from ATCC) were cultured in DMEM medium (Thermo Fisher Scientific, Inc., 11965) containing 10% FBS (Thermo Fisher Scientific, Inc., 10082) and 1% penicillin/streptomycin/amphotericin B (Thermo Fisher Scientific, Inc., 15240). A transcellular transport test was carried out in accordance with MultiScreen Caco2 Drug Transport Assembly in a 96-well system (Application Note AN1727EN, MultiScreen Caco-2 Assay System, Merck) by partially modifying it. The Caco2 cells were inoculated at a cell density of 4×10^4 cells/well onto a micropore polycarbonate insert of a 96-well plate (Merck, Millcell-96 culture insert plate 0.4 μm pore size, well membrane area=0.11 cm^2, PSHT004S5) and cultured for 20 to 22 days, and the resulting monolayer was used in the transcellular transport test. The medium of the inoculated cells was replaced with a fresh one every 3 to 4 days.
Apical-to-basolateral (A-to-B) transport in the Caco2 cell monolayer membrane was performed by using HBSS (Thermo Fisher Scientific, Inc., 14025) medium (pH=7.4) containing 20 mM HEPES (Thermo Fisher Scientific, Inc., 15630), and adding HEPES-containing HBSS medium containing 10 μM compound (a 10 mM solution of the compound in DMSO was added at a 1000-fold dilution; final DMSO concentration: 0.1%) at 75 μL/well to the apical side and HEPES-containing HBSS medium supplemented with no compound at 250 μL/well to the basolateral side, followed by culture at 37° C. for 90 minutes. After culture, a 100 μL aliquot was collected from the basolateral side, and the concentration of a permeated compound was measured by LC-MS/MS under measurement conditions mentioned later. Papp (apparent permeability; cm/sec) was calculated from the determined concentration. Papp was determined according to the expression given below by calculating the slope (dA/dt; nmol/sec) of a straight line drawn between two points 0 minutes and zero amount of the compound in a graph plotted with an assay time (90 min) on the abscissa against the amount of the compound in the solution on the permeated side on the ordinate. As for an assay concentration, the concentration in the compound in the HEPES-containing HBSS medium containing the added compound was measured by UV-HPLC under measurement conditions mentioned later.
Papp (cm/sec)=C0×S×(dA/dt)
C0: assay concentration, S: plate membrane area=0.11 cm^2

Compound | Papp A→B at 90 min, 10 μM
O=C(O)C[C@H](NC(=O)CNC(=O)c1cc(NC2=NCC(F)CN2)c2cn[nH]c2c1)c1cc(Cl)cc(C(F)(F)F)c1 (stereo partly drawn) [Example 1-(b), (3S)-3-(3-chloro-5-(trifluoromethyl)phenyl)-3-(2-(4-((5-fluoro-1,4,5,6-tetrahydropyrimidin-2-yl)amino)-1H-indazole-6-carboxamido)acetamido)propanoic acid] | > 1 ×10⁻⁶ cm/s
O=C(O)C[C@H](NC(=O)CNC(=O)c1cc(NC2=NCC(F)CN2)c2cn[nH]c2c1)c1cc(Br)cc(C(F)(F)F)c1 (stereo partly drawn) [Example 2-(b), (3S)-3-(3-bromo-5-(trifluoromethyl)phenyl)-3-(2-(4-((5-fluoro-1,4,5,6-tetrahydropyrimidin-2-yl)amino)-1H-indazole-6-carboxamido)acetamido)propanoic acid] | 0.5 to 1 ×10⁻⁶ cm/s
O=C(O)C[C@H](NC(=O)CNC(=O)c1cc(NC2=NCC(F)CN2)c2cn[nH]c2c1)c1cc(I)cc(C(F)(F)F)c1 (stereo partly drawn) [Example 3-(b), (3S)-3-(2-(4-((5-fluoro-1,4,5,6-tetrahydropyrimidin-2-yl)amino)-1H-indazole-6-carboxamido)acetamido)-3-(3-iodo-5-(trifluoromethyl)phenyl)propanoic acid] | > 1 ×10⁻⁶ cm/s
Cc1cc([C@H](CC(=O)O)NC(=O)CNC(=O)c2cc(NC3=NCC(F)CN3)c3cn[nH]c3c2)cc(C(F)(F)F)c1 (stereo partly drawn) [Example 4-(b), (3S)-3-(2-(4-((5-fluoro-1,4,5,6-tetrahydropyrimidin-2-yl)amino)-1H-indazole-6-carboxamido)acetamido)-3-(3-methyl-5-(trifluoromethyl)phenyl)propanoic acid] | > 1 ×10⁻⁶ cm/s
COc1cc([C@H](CC(=O)O)NC(=O)CNC(=O)c2cc(NC3=NCC(F)CN3)c3cn[nH]c3c2)cc(C(F)(F)F)c1 (stereo partly drawn) [Example 5-(b), (3S)-3-(2-(4-((5-fluoro-1,4,5,6-tetrahydropyrimidin-2-yl)amino)-1H-indazole-6-carboxamido)acetamido)-3-(3-methoxy-5-(trifluoromethyl)phenyl)propanoic acid] | 0.5 to 1 ×10⁻⁶ cm/s
O=C(O)C[C@H](NC(=O)CNC(=O)c1cc(NC2=NCC(F)CN2)c2cn[nH]c2c1)c1cc(F)cc(C(F)(F)F)c1 (stereo partly drawn) [Example 6-(b), (3S)-3-(2-(4-((5-fluoro-1,4,5,6-tetrahydropyrimidin-2-yl)amino)-1H-indazole-6-carboxamido)acetamido)-3-(3-fluoro-5-(trifluoromethyl)phenyl)propanoic acid] | > 1 ×10⁻⁶ cm/s
O=C(O)C[C@H](NC(=O)CNC(=O)c1cc(NC2=NCC(F)CN2)c2cn[nH]c2c1)c1cc(C(F)(F)F)cc(C(F)(F)F)c1 (stereo partly drawn) [Example 7-(b), (3S)-3-(3,5-bis(trifluoromethyl)phenyl)-3-(2-(4-((5-fluoro-1,4,5,6-tetrahydropyrimidin-2-yl)amino)-1H-indazole-6-carboxamido)acetamido)propanoic acid] | 0.5 to 1 ×10⁻⁶ cm/s
O=C(O)C[C@H](NC(=O)CNC(=O)c1cc(NC2=NCC(F)CN2)c2cn[nH]c2c1)c1cc(-n2cccn2)cc(C(F)(F)F)c1 (stereo partly drawn) [Example 8-(b), (3S)-3-(3-(1H-pyrazol-1-yl)-5-(trifluoromethyl)phenyl)-3-(2-(4-((5-fluoro-1,4,5,6-tetrahydropyrimidin-2-yl)amino)-1H-indazole-6-carboxamido)acetamido)propanoic acid] | 0.5 to 1 ×10⁻⁶ cm/s
O=C(O)C[C@H](NC(=O)CNC(=O)c1cc(NC2=NCC(F)CN2)c2cn[nH]c2c1)c1cccc(C(F)(F)F)c1F (stereo partly drawn) [Example 9-(b), (3S)-3-(2-(4-((5-fluoro-1,4,5,6-tetrahydropyrimidin-2-yl)amino)-1H-indazole-6-carboxamido)acetamido)-3-(2-fluoro-3-(trifluoromethyl)phenyl)propanoic acid] | > 1 ×10⁻⁶ cm/s
O=C(O)C[C@H](NC(=O)CNC(=O)c1cc(NC2=NCC(F)CN2)c2cn[nH]c2c1)c1cccc(C(F)(F)F)c1Cl (stereo partly drawn) [Example 10-(b), (3S)-3-(2-chloro-3-(trifluoromethyl)phenyl)-3-(2-(4-((5-fluoro-1,4,5,6-tetrahydropyrimidin-2-yl)amino)-1H-indazole-6-carboxamido)acetamido)propanoic acid] | > 1 ×10⁻⁶ cm/s
O=C(O)C[C@H](NC(=O)CNC(=O)c1cc(NC2=NCC(F)CN2)c2cn[nH]c2c1)c1cc(C(F)(F)F)ccc1F (stereo partly drawn) [Example 11-(b), (3S)-3-(2-(4-((5-fluoro-1,4,5,6-tetrahydropyrimidin-2-yl)amino)-1H-indazole-6-carboxamido)acetamido)-3-(2-fluoro-5-(trifluoromethyl)phenyl)propanoic acid] | > 1 ×10⁻⁶ cm/s
O=C(O)C[C@H](NC(=O)CNC(=O)c1cc(NC2=NCC(F)CN2)c2cn[nH]c2c1)c1cc(C(F)(F)F)ccc1Cl (stereo partly drawn) [Example 12-(b), (3S)-3-(2-chloro-5-(trifluoromethyl)phenyl)-3-(2-(4-((5-fluoro-1,4,5,6-tetrahydropyrimidin-2-yl)amino)-1H-indazole-6-carboxamido)acetamido)propanoic acid] | > 1 ×10⁻⁶ cm/s
O=C(O)C[C@H](NC(=O)CNC(=O)c1cc(NC2=NCC(F)CN2)c2cn[nH]c2c1)c1ccc(F)c(C(F)(F)F)c1 (stereo partly drawn) [Example 13-(b), (3S)-3-(2-(4-((5-fluoro-1,4,5,6-tetrahydropyrimidin-2-yl)amino)-1H-indazole-6-carboxamido)acetamido)-3-(4-fluoro-3-(trifluoromethyl)phenyl)propanoic acid] | > 1 ×10⁻⁶ cm/s
Cc1ccc([C@H](CC(=O)O)NC(=O)CNC(=O)c2cc(NC3=NCC(F)CN3)c3cn[nH]c3c2)cc1C(F)(F)F (stereo partly drawn) [Example 14-(b), (3S)-3-(2-(4-((5-fluoro-1,4,5,6-tetrahydropyrimidin-2-yl)amino)-1H-indazole-6-carboxamido)acetamido)-3-(4-methyl-3-(trifluoromethyl)phenyl)propanoic acid] | > 1 ×10⁻⁶ cm/s
O=C(O)C[C@H](NC(=O)CNC(=O)c1cc(NC2=NCC(F)CN2)c2cn[nH]c2c1)c1cc(Cl)c(F)c(C(F)(F)F)c1 (stereo partly drawn) [Example 15-(b), (3S)-3-(3-chloro-4-fluoro-5-(trifluoromethyl)phenyl)-3-(2-(4-((5-fluoro-1,4,5,6-tetrahydropyrimidin-2-yl)amino)-1H-indazole-6-carboxamido)acetamido)propanoic acid] | > 1 ×10⁻⁶ cm/s
COc1ccc([C@H](CC(=O)O)NC(=O)CNC(=O)c2cc(NC3=NCC(F)CN3)c3cn[nH]c3c2)cc1Br (stereo partly drawn) [Example 16-(b), (3S)-3-(3-bromo-4-methoxyphenyl)-3-(2-(4-((5-fluoro-1,4,5,6-tetrahydropyrimidin-2-yl)amino)-1H-indazole-6-carboxamido)acetamido)propanoic acid] | > 1 ×10⁻⁶ cm/s
O=C(O)C[C@H](NC(=O)CNC(=O)c1cc(NC2=NCC(F)CN2)c2cn[nH]c2c1)c1cc(Cl)cc(Cl)c1 (stereo partly drawn) [Example 17-(b), (3S)-3-(3,5-dichlorophenyl)-3-(2-(4-((5-fluoro-1,4,5,6-tetrahydropyrimidin-2-yl)amino)-1H-indazole-6-carboxamido)acetamido)propanoic acid] | > 1 ×10⁻⁶ cm/s
O=C(O)C[C@H](NC(=O)CNC(=O)c1cc(NC2=NCC(F)CN2)c2cn[nH]c2c1)c1cc(Cl)cc(Br)c1 (stereo partly drawn) [Example 18-(b), (3S)-3-(3-bromo-5-chlorophenyl)-3-(2-(4-((5-fluoro-1,4,5,6-tetrahydropyrimidin-2-yl)amino)-1H-indazole-6-carboxamido)acetamido)propanoic acid] | > 1 ×10⁻⁶ cm/s
